Reference: patent publication US8586747B2, “3,3-dimethyl tetrahydroquinoline derivatives” (Hoffmann-La Roche Inc., priority 2010, dated 2013)

What follows are molecules tested on AMP-activated protein kinase (AMPK) (assay: ADP Quest assay for AMPK activators). Conditions: fold of AMPK activation to phosphorylate SAMS peptide without and with an activator at the concentration of 30 µM.
Type: biochemical
Set-up: key: fold AMPK activation with vs without activator at 30 µM
Method in brief: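 E30, the fold increase in SAMS peptide phosphorylation at 30 µM compound relative to no activator, is derived from kinetic fluorescent detection of ADP (ex 530, em 590 nm). AMPK starts the ATP-containing reaction at room temperature; compounds span […] by 2-fold steps, AMP serves as reference.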

SMILES	E30
CC1(C)Cc2cc(C(=O)O)cc(Cl)c2NC1c1cccc(N2CCOCC2)c1 (stereo not shown) [Example 112, 8-Chloro-3,3-dimethyl-2-(3-morpholin-4-yl-phenyl)-1,2,3,4-tetrahydro-quinoline-6-carboxylic acid]	1.22
CC1(C)Cc2cc(C(=O)O)ccc2NC1c1cccc(C(=O)NC2CCOC2)c1 (stereo not shown) [Example 167, 3,3-Dimethyl-2-(3-(tetrahydrofuran-3-ylcarbamoyl)phenyl)-1,2,3,4-tetrahydroquinoline-6-carboxylic acid]	1.4
CC1(C)Cc2cc(C(=O)O)ccc2NC1c1cc(N2CCOCC2)ccc1F (stereo not shown) [Example 53, 2-(2-Fluoro-5-morpholin-4-yl-phenyl)-3,3-dimethyl-1,2,3,4-tetrahydro-quinoline-6-carboxylic acid]	1.33
CC1(C)Cc2cc(C(=O)NS(=O)(=O)C3CC3)ccc2NC1c1cccc(N2C(=O)OC[C@H]2Cc2ccccc2)c1 (stereo partly drawn) [Example 130, Cyclopropanesulfonic acid {2-[3-((R)4-benzyl-2-oxo-oxazolidin-3-yl)-phenyl]-3,3-dimethyl-1,2,3,4-tetrahydro-quinoline-6-carbonyl}-amide]	1.25
